Source: patent EP1879602B1, “USE OF CACAO POLYPHENOLS FOR CONTROLLING SKIN PIGMENTATION” (priority 2005, dated 2006)

Test system: synthèse de la mélanine
Experiment: Intracellular melanin assay by spectrometry at 475 nm on reconstituted epidermis (Skinetic®) co-cultured with melanocytes
Assay type: cell-based, humaine
Details: positive control, concentration not given
Description: L'activité sur la pigmentation (effet dépigmentant et effet pigmentant) a été étudiée à travers • l'évaluation de l'activité de la tyrosinase • l'évaluation de la synthèse de la mélanine (étude qualitative de la mélanine intracellulaire par spectrométrie à 475 nm)
L'étude a été faite sur des épidermes reconstitués (Skinetic®). Des kératinocytes d'origine humaine sont cultivés dans un milieu défini (MCDB 153 modifié) et supplémentés. Les cellules sont cultivées pendant 10 jours à l'interface air/liquide, le milieu de culture étant changé tous les deux jours.
Les épidermes ainsi formés sont mis en co-culture avec des mélanocytes de phototypes II, IV et VI sur des filtres en polycarbonate. L'étude est réalisée entre le 11^ème et le 17^ème jour de la culture.
L'essai est conduit en triplicate après 3 jours de contact.
L'évaluation de la synthèse de la mélanine intracellulaire (étude qualitative) a été effectuée comme indiqué ci-dessus par spectrométrie à 475 nm après digestion des explants de peau humaine puis dissolution dans NaOH 1N et du diméthyl sulfoxyde pendant 30 minutes.

In the case of `O=c1cc(CO)occ1O` [acide kojique], the “%” value (change vs negative control, 4320 min) was -42% and the “Absorbance (475 nm)” value (3 days contact, triplicate) was 0,107 ± 0,01.
